Results reported in patent publication US20240109900A1, “AZABICYCLIC SHP2 INHIBITORS” (IRBM S.P.A., priority 2021, published 2024).

Experiments:
[1] = target: SHP-2 enzyme (Met1-Leu525) (Homo sapiens (Human), UniProt Q06124); experiment: SHP2 inhibition enzymatic assay; assay type: biochemical; conditions: 0.5 nM SHP-2 activated by 500 nM IRS1 peptide, 75 μM DiFMUP substrate; read-out: SHP2wt-IC50
In short: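 Compounds were preincubated 30 min with 0.5 nM SHP-2 (Met1-Leu525) plus 500 nM IRS1 activating peptide (pH 7.2 HEPES, 5 mM DTT), then 75 μM DiFMUP substrate reacted 30 min at room temperature. After bpV quench, DiFMUP fluorescence gave % inhibition; four-parameter logistic fit yielded IC50.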

[2] = tested on: ERK phosphorylation in KYSE-520 cells; experiment: Phospho-ERK cellular assay; assay type: cell-based; conditions: Homo sapiens, KYSE-520, 2 h, KYSE-520 cells, 2 h at 37° C., phospho-ERK1/2 (Thr202/Tyr204) TR-FRET; read-out: PERK IC50
In short: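 TR-FRET read-out of ERK1/2 Thr202/Tyr204 phosphorylation was taken after overnight antibody incubation at room temperature. Before that, KYSE-520 cells were treated 2 h at 37 °C with compound dilutions and lysed 30 min. Percent inhibition relative to vehicle and cell-free wells was fitted four-parametrically to give IC50.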

Chain of SHP-2 enzyme (Met1-Leu525) (Q06124 1-525): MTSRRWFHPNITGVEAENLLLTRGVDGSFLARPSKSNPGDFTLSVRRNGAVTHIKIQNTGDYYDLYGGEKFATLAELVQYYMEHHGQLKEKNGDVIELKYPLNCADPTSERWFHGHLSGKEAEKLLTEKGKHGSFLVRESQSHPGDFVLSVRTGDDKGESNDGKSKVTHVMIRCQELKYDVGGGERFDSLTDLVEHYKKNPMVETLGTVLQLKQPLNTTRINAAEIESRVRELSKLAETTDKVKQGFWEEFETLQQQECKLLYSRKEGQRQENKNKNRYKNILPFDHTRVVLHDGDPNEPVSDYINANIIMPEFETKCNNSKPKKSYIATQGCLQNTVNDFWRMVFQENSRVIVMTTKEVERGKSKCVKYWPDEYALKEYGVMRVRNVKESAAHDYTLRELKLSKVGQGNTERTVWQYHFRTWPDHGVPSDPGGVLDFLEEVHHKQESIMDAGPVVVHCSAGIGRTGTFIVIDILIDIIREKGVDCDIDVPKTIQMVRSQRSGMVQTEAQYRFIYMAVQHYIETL

Row | Compound | IC50 [1] [nM] | IC50 [2] [nM]
1 | NC[C@]1(c2c(F)cccc2F)[C@@H]2CCN(c3cnc4c(-c5cccn6nccc56)n[nH]c4n3)C[C@@H]21 [Example 116, ((1S,6R,7R)-7-(2,6-difluorophenyl)-3-(3-(pyrazolo[1,5-a]pyridin-4-yl)-1H-pyrazolo[3,4-b]pyrazin-6-yl)-3-azabicyclo[4.1.0]heptan-7-yl)methanamine] | < 500 | < 1000
2 | Cn1cc2c(Cl)c(-c3n[nH]c4nc(N5CC[C@@H]6[C@H](C5)[C@@]6(CN)c5c(F)cccc5F)cnc34)ccc2n1 [Example 117, ((1S,6R,7R)-3-(3-(4-chloro-2-methyl-2H-indazol-5-yl)-1H-pyrazolo[3,4-b]pyrazin-6-yl)-7-(2,6-difluorophenyl)-3-azabicyclo[4.1.0]heptan-7-yl)methanamine] | < 500 | < 1000
3 | NC[C@]1(c2ccccc2F)[C@@H]2CCN(c3cnc4c(-c5ccc6ncsc6c5)n[nH]c4n3)C[C@@H]21 [Example 118, ((1S,6R,7R)-3-(3-(benzo[d]thiazol-6-yl)-1H-pyrazolo[3,4-b]pyrazin-6-yl)-7-(2-fluorophenyl)-3-azabicyclo[4.1.0]heptan-7-yl)methanamine] | < 500 | < 1000
4 | COc1cnc2ccc(-c3n[nH]c4nc(N5CC[C@@H]6[C@H](C5)[C@@]6(CN)c5ccccc5F)cnc34)c(Cl)c2n1 [Example 119, ((1S,6R,7R)-3-(3-(5-chloro-3-methoxyquinoxalin-6-yl)-1H-pyrazolo[3,4-b]pyrazin-6-yl)-7-(2-fluorophenyl)-3-azabicyclo[4.1.0]heptan-7-yl)methanamine] | < 500 | < 1000
5 | Cn1cc2c(Cl)c(-c3n[nH]c4nc(N5CC[C@@H]6[C@H](C5)[C@@]6(CN)c5ccc(F)cn5)cnc34)ccc2n1 [Example 120, ((1S,6R,7S)-3-(3-(4-chloro-2-methyl-2H-indazol-5-yl)-1H-pyrazolo[3,4-b]pyrazin-6-yl)-7-(5-fluoropyridin-2-yl)-3-azabicyclo[4.1.0]heptan-7-yl)methanamine] | < 500 | < 1000
6 | Cc1nc2ccc(-c3n[nH]c4nc(N5CC[C@@H]6[C@H](C5)[C@@]6(CN)c5ccc(F)cn5)cnc34)c(Cl)c2s1 [Example 121, ((1S,6R,7S)-3-(3-(7-chloro-2-methylbenzo[d]thiazol-6-yl)-1H-pyrazolo[3,4-b]pyrazin-6-yl)-7-(5-fluoropyridin-2-yl)-3-azabicyclo[4.1.0]heptan-7-yl)methanamine] | < 500 | < 1000
7 | NC[C@]1(c2ccccc2F)[C@@H]2CCN(c3cnc4c(-c5cccc6c5CC(=O)N6)n[nH]c4n3)C[C@@H]21 [Example 122, 4-(6-((1S,6R,7R)-7-(aminomethyl)-7-(2-fluorophenyl)-3-azabicyclo[4.1.0]heptan-3-yl)-1H-pyrazolo[3,4-b]pyrazin-3-yl)indolin-2-one] | < 500 | < 1000
8 | Cn1cc2c(Cl)c(-c3n[nH]c4nc(N5CC[C@@H]6[C@H](C5)[C@@]6(CN)c5ccon5)cnc34)ccc2n1 [Example 123, ((1S,6R,7S)-3-(3-(4-chloro-2-methyl-2H-indazol-5-yl)-1H-pyrazolo[3,4-b]pyrazin-6-yl)-7-(isoxazol-3-yl)-3-azabicyclo[4.1.0]heptan-7-yl)methanamine] | < 500 | < 1000
9 | Cc1nc2ccc(-c3n[nH]c4nc(N5CC[C@@H]6[C@H](C5)[C@@]6(CN)c5ccon5)cnc34)c(Cl)c2s1 [Example 124, ((1S,6R,7S)-3-(3-(7-chloro-2-methylbenzo[d]thiazol-6-yl)-1H-pyrazolo[3,4-b]pyrazin-6-yl)-7-(isoxazol-3-yl)-3-azabicyclo[4.1.0]heptan-7-yl)methanamine] | < 500 | < 1000
10 | COc1cccc2c(-c3n[nH]c4nc(N5CC[C@@H]6[C@H](C5)[C@@]6(CN)c5cc(C)on5)cnc34)ccnc12 [Example 125, ((1S,6R,7S)-3-(3-(8-methoxyquinolin-4-yl)-1H-pyrazolo[3,4-b]pyrazin-6-yl)-7-(5-methylisoxazol-3-yl)-3-azabicyclo[4.1.0]heptan-7-yl)methanamine] | < 500 | < 1000
11 | Cc1cc([C@@]2(CN)[C@@H]3CCN(c4cnc5c(-c6ccc(OC(F)(F)F)c7ncccc67)n[nH]c5n4)C[C@@H]32)no1 [Example 126, ((1S,6R,7S)-7-(5-methylisoxazol-3-yl)-3-(3-(8-(trifluoromethoxy)quinolin-5-yl)-1H-pyrazolo[3,4-b]pyrazin-6-yl)-3-azabicyclo[4.1.0]heptan-7-yl)methanamine] | < 500 | < 1000
12 | Cc1cc([C@@]2(CN)[C@@H]3CCN(c4cnc5c(-c6ccc7nn(C)cc7c6C)n[nH]c5n4)C[C@@H]32)no1 [Example 127, ((1S,6R,7S)-3-(3-(2,4-dimethyl-2H-indazol-5-yl)-1H-pyrazolo[3,4-b]pyrazin-6-yl)-7-(5-methylisoxazol-3-yl)-3-azabicyclo[4.1.0]heptan-7-yl)methanamine] | < 500 | < 1000
13 | COCc1ccc(-c2n[nH]c3nc(N4CC[C@@H]5[C@H](C4)[C@@]5(CN)c4cc(C)on4)cnc23)c2cccnc12 [Example 128, ((1S,6R,7S)-3-(3-(8-(methoxymethyl)quinolin-5-yl)-1H-pyrazolo[3,4-b]pyrazin-6-yl)-7-(5-methylisoxazol-3-yl)-3-azabicyclo[4.1.0]heptan-7-yl)methanamine] | < 500 | < 1000
14 | Cc1cc([C@@]2(CN)[C@@H]3CCN(c4cnc5c(-c6cccn7nccc67)n[nH]c5n4)C[C@@H]32)no1 [Example 129, ((1S,6R,7S)-7-(5-methylisoxazol-3-yl)-3-(3-(pyrazolo[1,5-a]pyridin-4-yl)-1H-pyrazolo[3,4-b]pyrazin-6-yl)-3-azabicyclo[4.1.0]heptan-7-yl)methanamine] | < 500 | < 1000
15 | Cc1cc([C@@]2(CN)[C@@H]3CCN(c4cnc5c(-c6cc(F)cc7ncccc67)n[nH]c5n4)C[C@@H]32)no1 [Example 130, ((1S,6R,7S)-3-(3-(7-fluoroquinolin-5-yl)-1H-pyrazolo[3,4-b]pyrazin-6-yl)-7-(5-methylisoxazol-3-yl)-3-azabicyclo[4.1.0]heptan-7-yl)methanamine] | 500 to 3000 | < 1000
16 | NC[C@]1(c2ccccc2F)[C@@H]2CCN(c3cnc4c(-c5cccn6nccc56)n[nH]c4n3)C[C@@H]21 [Example 131, ((1S,6R,7R)-7-(2-fluorophenyl)-3-(3-(pyrazolo[1,5-a]pyridin-4-yl)-1H-pyrazolo[3,4-b]pyrazin-6-yl)-3-azabicyclo[4.1.0]heptan-7-yl)methanamine] | < 500 | < 1000
17 | NC[C@]1(c2ccccc2F)[C@@H]2CCN(c3cnc4c(-c5ccnc6c(F)cccc56)n[nH]c4n3)C[C@@H]21 [Example 132, ((1S,6R,7R)-7-(2-fluorophenyl)-3-(3-(8-fluoroquinolin-4-yl)-1H-pyrazolo[3,4-b]pyrazin-6-yl)-3-azabicyclo[4.1.0]heptan-7-yl)methanamine] | < 500 | < 1000
18 | Cc1cc([C@@]2(CN)[C@@H]3CCN(c4cnc5c(-c6ccc(C(F)F)c7ncccc67)n[nH]c5n4)C[C@@H]32)no1 [Example 133, ((1S,6R,7S)-3-(3-(8-(difluoromethyl)quinolin-5-yl)-1H-pyrazolo[3,4-b]pyrazin-6-yl)-7-(5-methylisoxazol-3-yl)-3-azabicyclo[4.1.0]heptan-7-yl)methanamine] | < 500 | < 1000
